In data set [1] the target is T1, opioid receptor (rat brain synaptosomal plasma membranes) (Rattus norvegicus, UniProt P33535).
T1 construct: from rat brain synaptosomal plasma membranes; from tissue; host or cells: rat brain synaptosomal plasma membranes
The data set is described as follows: displacement of ^3H-dihydromorphine (^3H-DHM) from rat brain synaptosomal plasma membranes. It counts as binding. Particulars: for Hill coefficient: ^3H-DHM displacement; for binding activity for use in detection and quantification of receptor sites: synaptosomal membranes, in words.

The test system of data set [2] is guinea pig ileum longitudinal muscle. The data set can be described thus: electrically stimulated guinea pig ileum longitudinal muscle preparation. The note with it: for persistence of antagonist effect on washing of ileum: after washing. On the procedure:
6-FN was tested for activity on an electrically stimulated guinea pig ileum longitudinal muscle preparation. In this test, a specimen of guinea pig ileum was stretched between two wires in a nutrient solution (2.5 mil.) and stimulated supramaximally at 0.1 Hz. In the absence of opioid agonists and antagonists electrical stimulation of the muscle results in contraction.

Data set [3] is described as follows: fluorescence and absorption properties. It is filed as physicochemical. Particulars: for emission maximum / excitation maximum: pH 7 phosphate buffer, 10^-6 M solution. On the procedure:
The container was wrapped in aluminium foil. Thereafter, portions of ethyl alcohol and water were added to the reaction mixture.

The target of data set [4] is T2, opioid receptor sites, ^3H-DHM indicator ligand (Rattus norvegicus, UniProt P33535).
T2 construct: from rat brain synaptosomal plasma membranes; from tissue; host or cells: rat brain synaptosomal plasma membranes (inferred from the sister test; b86 says only 'a substrate')
The data set can be described thus: site selectivity analysis (Terenius and Wahlstrom), displacement of labeled ^3H-DHM in presence of cold DALE. It counts as binding.
Text: (§1) In FIG. 1 it will be noted that compounds which displace the two indicator ligands differently provide a curve which is convex towards the axis of the labeled indicator ligand which is less favorably displaced.

For data set [5], the target named is T3, opioid receptor sites, ^3H-DALE indicator ligand (Rattus norvegicus, UniProt P33533).
T3 construct: from rat brain synaptosomal plasma membranes; from tissue; host or cells: rat brain synaptosomal plasma membranes (inferred from the sister test; b86 says only 'a substrate')
The data set can be described thus: site selectivity analysis (Terenius and Wahlstrom), displacement of labeled ^3H-DALE in presence of cold DHM. It counts as binding.
Text: as §1

The nature of data set [6]: hygroscopicity of sample submitted for elemental analysis. It is filed as physicochemical.
Setting [7] is: determined graphically, rat brain synaptosomal plasma membranes.

Entries after “also recorded” stand apart in the source; their conditions may differ. Like-named read-outs stand apart in the source and are kept apart here.

T1 sequence (P33535 whole entry): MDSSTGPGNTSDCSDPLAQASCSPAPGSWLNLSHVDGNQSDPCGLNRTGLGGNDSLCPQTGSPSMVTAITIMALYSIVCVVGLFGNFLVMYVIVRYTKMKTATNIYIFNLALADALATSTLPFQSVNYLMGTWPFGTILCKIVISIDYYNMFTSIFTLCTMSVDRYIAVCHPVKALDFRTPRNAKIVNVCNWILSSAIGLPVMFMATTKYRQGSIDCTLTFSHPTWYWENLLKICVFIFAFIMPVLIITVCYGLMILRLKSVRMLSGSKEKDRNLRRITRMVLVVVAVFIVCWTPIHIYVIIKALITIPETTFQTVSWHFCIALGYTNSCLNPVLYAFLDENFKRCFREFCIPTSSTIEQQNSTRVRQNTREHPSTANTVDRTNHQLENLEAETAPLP
T2 sequence (P33535 whole entry): as above
T3 sequence (P33533 whole entry): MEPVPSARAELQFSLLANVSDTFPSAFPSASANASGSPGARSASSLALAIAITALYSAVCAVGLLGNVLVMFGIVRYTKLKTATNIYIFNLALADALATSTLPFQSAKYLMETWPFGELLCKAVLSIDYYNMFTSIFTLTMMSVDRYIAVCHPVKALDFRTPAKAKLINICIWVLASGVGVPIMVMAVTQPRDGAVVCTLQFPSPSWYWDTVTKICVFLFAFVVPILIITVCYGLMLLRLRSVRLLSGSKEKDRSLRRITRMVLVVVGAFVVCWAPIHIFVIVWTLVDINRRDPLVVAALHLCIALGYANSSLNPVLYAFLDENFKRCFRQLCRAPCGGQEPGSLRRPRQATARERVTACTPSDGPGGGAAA

Consider `O=C1OC2(c3ccc(O)cc3Oc3cc(O)ccc32)c2ccc(NC(=S)NN=C3CC[C@@]4(O)[C@H]5Cc6ccc(O)c7c6[C@@]4(CCN5CC4CC4)[C@H]3O7)cc21` [6-FNX, 1-(N)-fluoresceinyl naltrexone thiosemicarbazone], for which, in data set [1], the IC50 (commonly the point on the concentration scale where inhibition reaches its midpoint) was determined as 5 nM; the Hill coefficient (in general, the slope factor of the fitted curve) is on record as 0.675; the “binding activity for use in detection and quantification of receptor sites” value (“binding activity for use” below) was “sufficient binding activity”.

With `C=CCN1CC[C@]23c4c5ccc(O)c4O[C@H]2C(=NNC(=S)Nc2ccc4c(c2)C(=O)OC42c4ccc(O)cc4Oc4cc(O)ccc42)CC[C@@]3(O)[C@H]1C5` [6-FN, 1-(N)-Fluoresceinyl Naloxone Thiosemicarbazone], in data set [2] (10^-6 M 6-FN, FIG. 2), the “agonist activity of 6-FN” value is “slight agonist effect; also recorded: partial agonist activity”. In data set [2], the “persistence of antagonist effect on washing of ileum” value is on record as “did not readily eliminate the antagonist effect”. Further, the “antagonist effect with respect to normorphine” value in data set [2] (final 6-FN concentration 10^-7 M, prior to normorphine) is listed as “antagonist effect; also recorded: significantly inhibited the agonist effect of normorphine”. Also, the “antagonist effect compared with inhibiting effect of naloxone” value in data set [2] (inhibition of normorphine agonist effect) is given as “ten times less effective”. Moreover, in data set [1], the Hill coefficient was found to be 0.671; the “binding activity for use” value is recorded as “sufficient binding activity”. Further, the IC50 in data set [1] (setting [7]) worked out at 20 nM. In data set [3], this molecule had a fluorescence polarization of 0.038, an emission maximum of 513 nm and an excitation maximum of 493 nm. The molecule also came in with an absorption maximum in data set [3] (10^-5 M solution, phosphate buffer) of 493 nm. For the same molecule, in data set [3] (10^-5 M solution, phosphate buffer, 493 nm), the “absorbance A at absorption maximum” value came to 0.410. Besides, the “quantum yield compared to free fluorescein” value in data set [3] (10^-9 M) is recorded as “about 67%”. Besides, the IC50 in data set [4] was found to be 12 nM. In data set [4] (percent bound DALE* versus percent bound DHM*, in words), the “site selectivity compared with naloxone (FIG. 1)” value is “show clearly the difference between 6-FN and naloxone with respect to site selectivity”. Further, the IC50 in data set [5] is 17 nM.

As for `C=CCN1CC[C@]23c4c5ccc(O)c4O[C@H]2C(=NNC(=S)Nc2ccc4c(c2)C(=O)OC42c4ccc(N(C)C)cc4Oc4cc(N(C)C)ccc42)CC[C@@]3(O)[C@H]1C5` [6-RN, 1-(N)-tetramethylrhodaminyl-B-naloxone Thiosemicarbazone], in data set [1], the Hill coefficient was determined as 1.09; the “binding activity for use” value is “sufficient binding activity”.

On to `O=C1OC2(c3ccc(O)cc3Oc3cc(O)ccc32)c2ccccc21` [free fluorescein, fluorescein, reference compound], for which, in data set [3], the fluorescence polarization amounted to 0.022, the emission maximum is on record as 510-511 nm and the excitation maximum was 493 nm.

On to `Oc1ccc2c3c1O[C@H]1[C@@H](O)C=C[C@H]4[C@@H](C2)NCC[C@@]341` [normorphine, reference compound], for which, in data set [2] (normorphine 25 microliters, 10^-7 M), the “agonist effect, inhibition of contraction of ileum” value is listed as “agonist effect; also recorded: substantially inhibited contraction of the muscle”.

With `C=CCN1CC[C@]23c4c5ccc(O)c4O[C@H]2C(=O)CC[C@@]3(O)[C@H]1C5` [naloxone, reference compound], in data set [2] (10^-7 M naloxone versus 10^-6 M 6-FN), the “reversal of 6-FN partial agonist activity by naloxone” value is “reversible”. The “antagonist effect of naloxone with respect to 6-FN” value in data set [2] (FIG. 2 legend) is reported as “antagonist effect”. Besides, the “persistence of antagonist effect on washing of ileum” value in data set [2] is reported as “similar”.

In the case of `CN1CC[C@]23c4c5ccc(O)c4O[C@H]2C(=NNC(=S)Nc2ccc4c(c2)C(=O)OC42c4ccc(O)cc4Oc4cc(O)ccc42)CC[C@@]3(O)[C@H]1C5` [6-FO, 1-(N)-Fluoresceinyl Oxymorphone thiosemicarbazone], in data set [6], the hygroscopicity entry is given as “very hygroscopic”. Further, in data set [1], the Hill coefficient is 0.989; the “binding activity for use” value is recorded as “sufficient binding activity”. Further, the IC50 in data set [1] (setting [7]) was found to be 20 nM.
